Key:
Test in all cases: relative viability (nuclei count vs DMSO), 5 days (fraction); higher = more cells survive
Dasatinib + Decitabine = compound: Cc1nc(Nc2ncc(C(=O)Nc3c(C)cccc3Cl)s2)cc(N2CCN(CCO)CC2)n1 [Dasatinib] + Nc1ncn([C@H]2C[C@H](O)[C@@H](CO)O2)c(=O)n1 [Decitabine] (partner 2 µM)
How it was run: (§1)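 Each reported value is a median over duplicate plates. It expresses relative viability: treated-well nuclei count divided by vehicle-well nuclei count. Lung cancer cell lines in 1536-well plates were dosed by pin tool a day after seeding, alone with one drug or with a fixed anchor-drug dose plus five library-drug doses (not always all listed) in √10 steps, and nuclei were counted after 5 days.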

Dasatinib + Bortezomib = compound: Cc1nc(Nc2ncc(C(=O)Nc3c(C)cccc3Cl)s2)cc(N2CCN(CCO)CC2)n1 [Dasatinib] + CC(C)C[C@H](NC(=O)[C@H](Cc1ccccc1)NC(=O)c1cnccn1)B(O)O [Bortezomib] (partner 0.002 µM)
How it was run: as §1

Dasatinib + Palbociclib = compound: Cc1nc(Nc2ncc(C(=O)Nc3c(C)cccc3Cl)s2)cc(N2CCN(CCO)CC2)n1 [Dasatinib] + CC(=O)c1c(C)c2cnc(Nc3ccc(N4CCNCC4)cn3)nc2n(C2CCCC2)c1=O [Palbociclib] (partner 0.5 µM)
How it was run: as §1

XMD13-2 + Crizotinib = compound: C1CC1C(=O)NC2=NNC3=C2C=CC(=C3)C4=CC(=CC=C4)C(=O)NC5CC5 [XMD13-2] + C[C@@H](Oc1cc(-c2cnn(C3CCNCC3)c2)cnc1N)c1c(Cl)ccc(F)c1Cl [Crizotinib] (partner 1 µM)
How it was run: as §1

Cell Line | relative viability (Dasatinib + Decitabine; first compound 0.005 µM) | relative viability (Dasatinib + Decitabine; first compound 0.01581 µM) | relative viability (Dasatinib + Decitabine; first compound 0.05 µM) | relative viability (Dasatinib + Decitabine; first compound 0.1581 µM) | relative viability (Dasatinib + Decitabine; first compound 0.5 µM) | relative viability (Dasatinib + Bortezomib; first compound 0.005 µM) | relative viability (Dasatinib + Bortezomib; first compound 0.01581 µM) | relative viability (Dasatinib + Bortezomib; first compound 0.05 µM) | relative viability (Dasatinib + Bortezomib; first compound 0.1581 µM) | relative viability (Dasatinib + Bortezomib; first compound 0.5 µM) | relative viability (Dasatinib + Palbociclib; first compound 0.005 µM) | relative viability (Dasatinib + Palbociclib; first compound 0.01581 µM) | relative viability (Dasatinib + Palbociclib; first compound 0.05 µM) | relative viability (Dasatinib + Palbociclib; first compound 0.1581 µM) | relative viability (Dasatinib + Palbociclib; first compound 0.5 µM) | relative viability (XMD13-2 + Crizotinib; first compound 0.05 µM) | relative viability (XMD13-2 + Crizotinib; first compound 0.1581 µM) | relative viability (XMD13-2 + Crizotinib; first compound 0.5 µM) | relative viability (XMD13-2 + Crizotinib; first compound 1.581 µM) | relative viability (XMD13-2 + Crizotinib; first compound 5 µM)
RERF-LC-KJ | 0.701 | 0.621 | 0.552 | 0.629 | 0.627 | 1.1 | 0.765 | 0.965 | 0.955 | 0.77 | 1.08 | 0.994 | 1.11 | 0.782 | 0.81 | 0.865 | 0.85 | 0.816 | 0.771 | 0.801
NCI-H1755 | 0.682 | 0.641 | 0.602 | 0.509 | 0.323 | 0.842 | 0.759 | 0.645 | 0.538 | 0.297 | 0.438 | 0.435 | 0.401 | 0.322 | 0.235 | 0.982 | 0.85 | 0.861 | 0.856 | 0.922
PC-14 | 0.301 | 0.258 | 0.215 | 0.186 | 0.0693 | 0.822 | 0.96 | 0.969 | 0.585 | 0.35 | 0.561 | 0.502 | 0.427 | 0.221 | 0.0393 | 1.03 | 0.961 | 0.909 | 0.818 | 0.969
NCI-H322M | 0.755 | 0.589 | 0.518 | 0.45 | 0.253 | 1.28 | 1.25 | 1.32 | 0.966 | 0.177 | 0.435 | 0.382 | 0.365 | 0.326 | 0.228 | 0.913 | 0.937 | 1.09 | 0.814 | 1.01
NCI-H1666 | 0.725 | 0.691 | 0.73 | 0.656 | 0.521 | 0.763 | 0.663 | 0.718 | 0.582 | 0.288 | 0.661 | 0.594 | 0.637 | 0.656 | 0.632 | 0.832 | 0.989 | 1.09 | 0.971 | 0.855
A-427 | 0.616 | 0.513 | 0.543 | 0.491 | 0.493 | 1 | 0.983 | 0.839 | 0.663 | 0.524 | 0.5 | 0.507 | 0.525 | 0.42 | 0.394 | 1.01 | 0.872 | 0.812 | 0.724 | 0.34
NCI-H1651 | 0.629 | 0.507 | 0.558 | 0.585 | 0.473 | 0.947 | 0.873 | 0.795 | 0.859 | 0.825 | 0.523 | 0.494 | 0.514 | 0.4 | 0.36 | 0.946 | 0.811 | 0.886 | 0.898 | 0.863
NCI-H520 | 0.524 | 0.38 | 0.266 | 0.177 | 0.175 | 0.588 | 0.22 | 0.358 | 0.146 | 0.178 | 0.172 | 0.156 | 0.131 | 0.1 | 0.119 | 0.962 | 0.681 | 0.682 | 0.672 | 0.403
201T | 0.834 | 0.795 | 0.802 | 0.646 | 0.416 | 1.04 | 0.938 | 1.01 | 0.982 | 0.623 | 0.341 | 0.306 | 0.311 | 0.296 | 0.237 | 1 | 1.01 | 1 | 0.988 | 1.07
NCI-H460 | 0.568 | 0.444 | 0.352 | 0.29 | 0.286 | 0.97 | 0.79 | 0.701 | 0.736 | 0.49 | 0.14 | 0.112 | 0.0827 | 0.06 | 0.0635 | 1.25 | 0.951 | 0.99 | 0.949 | 0.873
HARA | 0.578 | 0.47 | 0.549 | 0.305 | 0.221 | 1.19 | 0.881 | 0.897 | 0.501 | 0.184 | 0.303 | 0.243 | 0.155 | 0.177 | 0.114 | 1.2 | 1.05 | 1.13 | 1.1 | 0.486
NCI-H2126 | 0.567 | 0.51 | 0.553 | 0.437 | 0.351 | 1.08 | 1.07 | 1.16 | 0.988 | 0.587 | 0.362 | 0.347 | 0.309 | 0.298 | 0.285 | 1.08 | 0.979 | 1.04 | 0.998 | 1.06
HCC-827 | 0.35 | 0.271 | 0.309 | 0.224 | 0.159 | 1.08 | 1.03 | 1.07 | 0.981 | 0.48 | 0.438 | 0.458 | 0.419 | 0.135 | 0.114 | 0.974 | 0.923 | 0.906 | 0.807 | 0.682
ABC-1 | 1.31 | 0.953 | 1.18 | 1.06 | 0.975 | 0.295 | 0.303 | 0.247 | 0.269 | 0.351 | 0.625 | 0.5 | 0.662 | 0.524 | 0.688 | 1.4 | 1.41 | 1.16 | 1.03 | 0.675
NCI-H650 | 0.325 | 0.281 | 0.318 | 0.341 | 0.302 | 0.867 | 0.939 | 0.73 | 0.559 | 0.451 | 0.307 | 0.326 | 0.343 | 0.323 | 0.261 | 0.838 | 0.836 | 0.803 | 0.638 | 0.74
BEN | 0.667 | 0.598 | 0.567 | 0.442 | 0.387 | 0.628 | 0.439 | 0.425 | 0.315 | 0.362 | 0.448 | 0.387 | 0.43 | 0.365 | 0.34 | 0.919 | 0.913 | 0.852 | 0.989 | 0.917
ChaGo-K-1 | 0.545 | 0.5 | 0.543 | 0.49 | 0.416 | 0.847 | 1.03 | 0.99 | 0.891 | 0.864 | 0.947 | 0.881 | 0.892 | 0.802 | 0.634 | 1.26 | 1.08 | 1.25 |  | 1.14
NCI-H23 | 0.273 | 0.293 | 0.286 | 0.27 | 0.236 | 0.958 | 0.812 | 0.904 | 0.677 | 0.519 | 0.536 | 0.476 | 0.38 | 0.34 | 0.271 | 0.759 | 0.518 | 0.506 | 0.411 | 0.423
NCI-H1975 | 0.377 | 0.384 | 0.368 | 0.266 | 0.224 | 0.393 | 0.279 | 0.348 | 0.212 | 0.22 | 0.519 | 0.527 | 0.482 | 0.341 | 0.134 | 1.21 | 1.02 | 0.91 | 0.954 | 1.14
COR-L 105 | 0.599 | 0.604 | 0.478 | 0.445 | 0.297 | 0.611 | 0.51 | 0.498 | 0.318 | 0.273 | 0.429 | 0.363 | 0.368 | 0.371 | 0.275 | 1 | 0.843 | 0.881 | 0.701 | 0.927
EKVX | 0.307 | 0.291 | 0.304 | 0.187 | 0.146 | 0.929 | 0.807 | 0.87 | 0.501 | 0.146 | 0.412 | 0.319 | 0.332 | 0.199 | 0.13 | 1.05 | 1.21 | 1.06 | 0.977 | 1.12
NCI-H2009 | 0.403 | 0.384 | 0.314 | 0.216 | 0.122 | 1.13 | 0.97 | 0.884 | 0.354 | 0.173 | 0.186 | 0.137 | 0.138 | 0.103 | 0.101 | 1.09 | 1.03 | 1.05 | 1 | 1.12
NCI-H838 | 0.45 | 0.422 | 0.39 | 0.377 | 0.3 | 0.747 | 0.395 | 0.445 | 0.198 | 0.202 | 0.193 | 0.156 | 0.182 | 0.148 | 0.141 | 0.917 | 0.891 | 0.814 | 0.883 | 0.848
NCI-H2085 | 0.616 | 0.424 | 0.385 | 0.264 | 0.25 | 1.09 | 0.958 | 0.86 | 0.397 | 0.262 | 0.495 | 0.485 | 0.395 | 0.191 | 0.206 | 1.09 | 0.901 | 0.877 | 0.736 | 0.826
